In general, inhibition refers to the relative decrease from the control value, in per cent.

Here are results for eight molecules from patent publication EP3212201B1, “NUCLEOSIDE KINASE INHIBITORS” (BCI Pharma, priority 2014, dated 2016).

Experiment in all cases: FRET-based coupled-enzyme protein kinase inhibition assay
Format in all cases: biochemical
Conditions in all cases: compound at 10 µM, 1% DMSO

For assay [1], the target named is ABL1 (Homo sapiens, UniProt P00519). The procedure:
(§1) A biochemical assay was then performed in order to measure the protein kinase inhibition. It employed a fluorescence-based coupled-enzyme format and was based on the differential sensitivity of phosphorylated and non-phosphorylated peptides to proteolytic cleavage.
(§2) Peptide substrates were labeled with two fluorophores. The two fluorohores used were coumarin (donor) and fluorecein (acceptor), and each of the peptides was bearing one at one end, and one at the other end, which made up fluorescence resonance energy transfer (FRET) pair peptides.
(§3) In a primary reaction, the FRET-peptides were submitted to a phosphorylation reaction, in which one of adenosine triphosphate (ATP)'s phosphate groups was transferred to the peptide in the presence of kinase. When kinase inhibition takes place, the peptide will not be phosphorylated. In a secondary reaction, both the phosphorylated FRET-peptides and the non-phosphorylated FRET-peptides were reacted with a development reagent. It has been observed that non-phosphorylated FRET-peptides were cleaved, whereas the phosphorylted FRET-peptide remained intact.
(§4) Cleavage disrupts FRET between the donor (i.e., coumarin) and acceptor (i.e., fluorescein) fluorophores on the FRET-peptide, whereas uncleaved, phosphorylated FRET-peptides maintain FRET. A ratiometric method, which calculates the Emission Ratio of donor emission to acceptor emission after excitation of the donor fluorophore at 400 nm, is used to quantitate reaction progress, as shown in the equation below. [formula]
(§5) A significant benefit of this ratiometric method for quantitating reaction progress is the elimination of well-to-well variations in FRET-peptide concentration and signal intensities. As a result, the assay yields very high Z'factor values (>0.7) at a low percent phosphorylation. Both cleaved and uncleaved FRET-peptides contribute to the fluorescence signals and therefore to the Emission Ratio. The extent of phosphorylation of the FRET-peptide can be calculated from the Emission Ratio. The Emission Ratio will remain low if the FRET-peptide is phosphorylated (i.e., no kinase inhibition) and will be high if the FRET-peptide is non-phosphorylated (i.e., kinase inhibition).
(§6) The Test Compounds were screened in 1% DMSO. For 10 point titrations, 3-fold serial dilutions were prepared from the starting concentration.
(§7) All Peptide/Kinase Mixtures were diluted to a 2X working concentration in the appropriate Kinase Buffer (50 mM HEPES pH 7.5, 0.01% BRIJ-35, 10 mM MgCl2, 1 mM […]).
(§8) All ATP Solutions were diluted to a 4X working concentration in Kinase Buffer. ATP Km apparent was previously determined using another assay.
(§9) 2.5 µL - 4X Test Compound or 100 nL 100X plus 2.4 µL kinase buffer were mixed together with 2. 5 µL - 2X Peptide/Kinase Mixture and 3. 2.5 µL - 4X ATP Solution.
(§10) The solution was plate-shaked for 30 seconds, then incubated 60 minutes at room temperature for kinase reaction. 5 µL of Development Reagent Solution were then added, followed by a 30-second plate shake and a 60-minute Development Reaction incubation at room temperature. The results were read on a fluorescence plate reader and the data was analyzed.
(§11) The compounds that show the highest Emission Ratio are the ones that also show the highest protein kinase inhibition properties.

Assay [2] has as its target AKT1 (PKB alpha) (Homo sapiens, UniProt P31749). The procedure: as §1, §2, §3, §4, §5, §6, §7, §8, §9, §10, §11
Assay [3] addresses CSNK2A1 (CK2 alpha 1) (Homo sapiens, UniProt P68400). The procedure:
as §1, §2, §3, §4, §5, §6, §7, §8, §9, §10, §11

The target of assay [4] is T1, DYRK3 (Homo sapiens, UniProt O43781).
T1 sequence (O43781 1-588): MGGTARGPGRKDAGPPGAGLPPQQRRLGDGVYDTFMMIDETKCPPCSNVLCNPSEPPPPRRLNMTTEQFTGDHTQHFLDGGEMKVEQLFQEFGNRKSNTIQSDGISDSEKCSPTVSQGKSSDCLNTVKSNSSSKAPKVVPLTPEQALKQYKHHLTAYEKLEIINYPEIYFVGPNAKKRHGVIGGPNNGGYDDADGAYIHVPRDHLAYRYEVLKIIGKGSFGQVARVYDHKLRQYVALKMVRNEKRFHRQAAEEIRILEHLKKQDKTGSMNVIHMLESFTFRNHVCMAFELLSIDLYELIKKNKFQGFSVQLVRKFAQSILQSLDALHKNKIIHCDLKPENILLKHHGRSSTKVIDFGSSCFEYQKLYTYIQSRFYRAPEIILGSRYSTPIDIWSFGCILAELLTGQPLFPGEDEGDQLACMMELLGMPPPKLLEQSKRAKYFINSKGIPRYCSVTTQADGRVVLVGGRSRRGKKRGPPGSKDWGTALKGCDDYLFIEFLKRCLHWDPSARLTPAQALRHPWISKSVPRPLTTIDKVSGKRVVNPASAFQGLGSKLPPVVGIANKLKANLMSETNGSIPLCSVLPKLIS
The procedure:
as §1, §2, §3, §4, §5, §6, §7, §8, §9, §10, §11

Assay [5] addresses GSK3B (GSK3 beta) (Homo sapiens, UniProt P49841). The procedure: as §1, §2, §3, §4, §5, §6, §7, §8, §9, §10, §11
Assay [6] addresses IGF1R (Homo sapiens, UniProt P08069). The procedure:
as §1, §2, §3, §4, §5, §6, §7, §8, §9, §10, §11

For assay [7], the target named is T2, IRAK4 (Homo sapiens, UniProt Q9NWZ3).
T2 sequence (Q9NWZ3 1-460): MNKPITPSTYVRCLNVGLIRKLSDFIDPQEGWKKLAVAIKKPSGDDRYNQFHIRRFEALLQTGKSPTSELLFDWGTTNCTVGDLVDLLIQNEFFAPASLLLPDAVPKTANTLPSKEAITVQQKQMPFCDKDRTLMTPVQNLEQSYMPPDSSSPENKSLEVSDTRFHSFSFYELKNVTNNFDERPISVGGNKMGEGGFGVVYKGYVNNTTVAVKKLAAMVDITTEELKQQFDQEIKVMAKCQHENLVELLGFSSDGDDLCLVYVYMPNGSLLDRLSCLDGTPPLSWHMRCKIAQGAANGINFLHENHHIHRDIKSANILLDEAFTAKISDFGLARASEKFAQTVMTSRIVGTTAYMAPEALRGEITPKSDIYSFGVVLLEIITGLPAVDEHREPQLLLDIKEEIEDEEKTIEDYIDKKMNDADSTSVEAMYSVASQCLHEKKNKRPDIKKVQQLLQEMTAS
The procedure: as §1, §2, §3, §4, §5, §6, §7, §8, §9, §10, §11

The target of assay [8] is KIT (Homo sapiens, UniProt P10721). The procedure: as §1, §2, §3, §4, §5, §6, §7, §8, §9, §10, §11
Chain of KIT (P10721 26-976, species assumed): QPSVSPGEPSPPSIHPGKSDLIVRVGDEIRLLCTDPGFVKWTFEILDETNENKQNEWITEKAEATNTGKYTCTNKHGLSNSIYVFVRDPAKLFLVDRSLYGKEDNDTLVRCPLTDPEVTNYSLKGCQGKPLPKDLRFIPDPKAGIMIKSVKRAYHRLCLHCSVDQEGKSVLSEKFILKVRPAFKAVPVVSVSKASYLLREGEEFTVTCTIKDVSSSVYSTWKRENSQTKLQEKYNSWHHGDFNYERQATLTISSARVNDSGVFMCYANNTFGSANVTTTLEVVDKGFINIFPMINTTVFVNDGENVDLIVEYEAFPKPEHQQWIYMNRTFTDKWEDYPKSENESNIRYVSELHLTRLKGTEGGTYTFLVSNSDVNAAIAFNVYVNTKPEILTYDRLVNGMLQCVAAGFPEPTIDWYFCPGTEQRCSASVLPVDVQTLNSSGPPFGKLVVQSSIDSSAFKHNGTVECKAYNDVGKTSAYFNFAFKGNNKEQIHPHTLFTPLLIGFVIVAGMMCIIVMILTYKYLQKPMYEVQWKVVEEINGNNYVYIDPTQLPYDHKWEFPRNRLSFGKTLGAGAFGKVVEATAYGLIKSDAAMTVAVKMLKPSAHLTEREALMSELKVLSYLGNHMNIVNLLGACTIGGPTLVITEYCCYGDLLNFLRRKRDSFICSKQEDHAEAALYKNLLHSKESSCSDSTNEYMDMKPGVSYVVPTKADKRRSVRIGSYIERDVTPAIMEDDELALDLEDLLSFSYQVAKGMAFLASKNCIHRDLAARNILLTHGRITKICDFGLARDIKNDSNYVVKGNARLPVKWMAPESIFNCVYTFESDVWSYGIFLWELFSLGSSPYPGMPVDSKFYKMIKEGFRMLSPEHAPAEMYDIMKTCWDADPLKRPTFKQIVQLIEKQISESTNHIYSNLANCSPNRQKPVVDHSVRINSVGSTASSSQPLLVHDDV
In assay [9] the target is MAPK1 (ERK2) (Homo sapiens, UniProt P28482). The procedure:
as §1, §2, §3, §4, §5, §6, §7, §8, §9, §10, §11

Assay [10] concerns the target MET (cMet) (Homo sapiens, UniProt P08581). The procedure:
as §1, §2, §3, §4, §5, §6, §7, §8, §9, §10, §11

Assay [11] addresses PRKACA (PKA) (Homo sapiens, UniProt P17612). The procedure:
as §1, §2, §3, §4, §5, §6, §7, §8, §9, §10, §11

For assay [12], the target named is RPS6KB1 (p70S6K) (Homo sapiens, UniProt P23443). The procedure: as §1, §2, §3, §4, §5, §6, §7, §8, §9, §10, §11
Chain of RPS6KB1 (p70S6K) (P23443 whole entry, species assumed): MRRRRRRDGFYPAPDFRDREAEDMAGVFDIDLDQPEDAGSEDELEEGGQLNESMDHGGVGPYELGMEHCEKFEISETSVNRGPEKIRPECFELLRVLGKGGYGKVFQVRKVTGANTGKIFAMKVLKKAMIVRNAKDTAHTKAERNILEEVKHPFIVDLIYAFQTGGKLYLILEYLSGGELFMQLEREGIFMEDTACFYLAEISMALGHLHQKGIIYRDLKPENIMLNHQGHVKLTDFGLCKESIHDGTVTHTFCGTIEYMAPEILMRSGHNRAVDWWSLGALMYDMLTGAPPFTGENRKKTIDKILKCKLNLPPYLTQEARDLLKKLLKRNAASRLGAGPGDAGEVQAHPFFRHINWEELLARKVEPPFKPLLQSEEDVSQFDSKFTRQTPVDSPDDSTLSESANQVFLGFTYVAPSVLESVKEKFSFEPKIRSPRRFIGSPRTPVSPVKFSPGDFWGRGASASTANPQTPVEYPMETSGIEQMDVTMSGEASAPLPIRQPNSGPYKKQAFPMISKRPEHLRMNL

Chain of GSK3B (GSK3 beta) (P49841 whole entry, species assumed): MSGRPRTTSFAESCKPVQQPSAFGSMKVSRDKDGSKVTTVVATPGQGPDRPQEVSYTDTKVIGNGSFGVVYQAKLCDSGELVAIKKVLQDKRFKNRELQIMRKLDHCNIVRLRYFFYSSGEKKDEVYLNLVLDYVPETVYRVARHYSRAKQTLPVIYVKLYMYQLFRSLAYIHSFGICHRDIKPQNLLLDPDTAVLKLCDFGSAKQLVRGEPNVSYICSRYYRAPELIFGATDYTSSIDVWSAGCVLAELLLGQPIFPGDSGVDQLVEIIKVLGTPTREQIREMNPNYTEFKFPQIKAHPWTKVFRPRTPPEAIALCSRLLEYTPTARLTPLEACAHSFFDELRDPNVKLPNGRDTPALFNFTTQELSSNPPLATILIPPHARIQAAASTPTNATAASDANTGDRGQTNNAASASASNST
Chain of MET (cMet) (P08581 25-1390): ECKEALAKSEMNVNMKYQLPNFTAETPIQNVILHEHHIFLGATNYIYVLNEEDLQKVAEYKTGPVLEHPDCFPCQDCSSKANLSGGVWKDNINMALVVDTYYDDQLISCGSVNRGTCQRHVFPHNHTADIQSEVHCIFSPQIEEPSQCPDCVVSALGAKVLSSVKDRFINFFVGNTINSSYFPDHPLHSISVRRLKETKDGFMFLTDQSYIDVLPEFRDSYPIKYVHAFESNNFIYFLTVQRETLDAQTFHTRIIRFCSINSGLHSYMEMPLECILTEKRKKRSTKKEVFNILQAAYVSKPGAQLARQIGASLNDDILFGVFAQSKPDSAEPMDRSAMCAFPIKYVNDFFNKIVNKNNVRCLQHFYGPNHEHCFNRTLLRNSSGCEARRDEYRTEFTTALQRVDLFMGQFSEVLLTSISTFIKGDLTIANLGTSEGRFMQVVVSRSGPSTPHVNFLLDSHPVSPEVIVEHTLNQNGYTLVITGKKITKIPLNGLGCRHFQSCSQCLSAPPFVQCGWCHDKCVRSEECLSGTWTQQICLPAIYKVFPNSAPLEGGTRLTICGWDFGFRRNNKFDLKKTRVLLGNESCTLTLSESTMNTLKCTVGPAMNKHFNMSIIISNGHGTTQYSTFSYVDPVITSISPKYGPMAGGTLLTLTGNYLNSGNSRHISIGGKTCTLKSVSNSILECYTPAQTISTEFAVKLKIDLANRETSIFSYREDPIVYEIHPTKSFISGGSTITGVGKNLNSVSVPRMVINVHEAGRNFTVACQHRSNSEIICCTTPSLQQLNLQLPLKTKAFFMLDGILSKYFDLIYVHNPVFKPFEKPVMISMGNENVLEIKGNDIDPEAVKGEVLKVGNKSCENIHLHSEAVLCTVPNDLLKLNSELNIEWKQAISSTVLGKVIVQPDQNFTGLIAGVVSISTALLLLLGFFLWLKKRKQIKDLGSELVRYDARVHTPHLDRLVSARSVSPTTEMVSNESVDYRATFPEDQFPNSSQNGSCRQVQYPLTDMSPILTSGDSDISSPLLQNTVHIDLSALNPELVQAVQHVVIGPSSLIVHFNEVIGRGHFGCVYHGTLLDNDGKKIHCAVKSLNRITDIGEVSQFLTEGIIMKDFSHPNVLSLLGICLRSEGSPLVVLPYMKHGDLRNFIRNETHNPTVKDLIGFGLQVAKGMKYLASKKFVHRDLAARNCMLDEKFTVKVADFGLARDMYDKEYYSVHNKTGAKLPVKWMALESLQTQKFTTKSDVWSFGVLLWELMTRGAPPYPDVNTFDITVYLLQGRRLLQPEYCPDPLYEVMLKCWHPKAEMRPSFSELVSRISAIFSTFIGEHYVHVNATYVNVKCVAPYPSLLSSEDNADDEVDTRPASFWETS
Chain of ABL1 (P00519 whole entry, species assumed): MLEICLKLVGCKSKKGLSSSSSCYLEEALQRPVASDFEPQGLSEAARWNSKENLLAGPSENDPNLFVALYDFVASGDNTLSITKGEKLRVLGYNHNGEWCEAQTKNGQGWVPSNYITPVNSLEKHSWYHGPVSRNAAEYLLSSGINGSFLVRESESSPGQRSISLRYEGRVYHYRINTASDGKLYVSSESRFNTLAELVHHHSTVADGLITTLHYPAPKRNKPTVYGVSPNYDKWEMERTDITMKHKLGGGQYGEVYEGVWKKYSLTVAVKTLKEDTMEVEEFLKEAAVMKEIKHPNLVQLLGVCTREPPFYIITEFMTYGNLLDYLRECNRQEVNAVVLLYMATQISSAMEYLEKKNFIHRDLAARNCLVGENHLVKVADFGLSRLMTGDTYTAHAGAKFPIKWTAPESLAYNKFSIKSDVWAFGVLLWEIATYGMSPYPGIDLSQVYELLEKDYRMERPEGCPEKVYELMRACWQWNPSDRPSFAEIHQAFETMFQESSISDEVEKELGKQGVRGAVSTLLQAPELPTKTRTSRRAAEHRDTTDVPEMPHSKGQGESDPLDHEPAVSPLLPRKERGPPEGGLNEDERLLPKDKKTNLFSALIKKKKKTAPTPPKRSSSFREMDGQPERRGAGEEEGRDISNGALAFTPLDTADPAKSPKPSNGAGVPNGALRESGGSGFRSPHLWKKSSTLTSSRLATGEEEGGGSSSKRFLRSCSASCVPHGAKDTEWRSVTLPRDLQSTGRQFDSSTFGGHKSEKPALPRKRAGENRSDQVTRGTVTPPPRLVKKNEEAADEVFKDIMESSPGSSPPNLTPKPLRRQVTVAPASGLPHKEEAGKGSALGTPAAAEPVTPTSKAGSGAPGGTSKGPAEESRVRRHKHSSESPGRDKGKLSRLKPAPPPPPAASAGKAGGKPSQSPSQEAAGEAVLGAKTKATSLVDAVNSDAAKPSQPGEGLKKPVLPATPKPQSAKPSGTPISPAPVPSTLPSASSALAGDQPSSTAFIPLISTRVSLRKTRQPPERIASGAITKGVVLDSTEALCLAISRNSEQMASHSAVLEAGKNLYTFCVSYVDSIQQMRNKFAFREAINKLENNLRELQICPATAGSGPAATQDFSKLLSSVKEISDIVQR
Chain of MAPK1 (ERK2) (P28482 whole entry, species assumed): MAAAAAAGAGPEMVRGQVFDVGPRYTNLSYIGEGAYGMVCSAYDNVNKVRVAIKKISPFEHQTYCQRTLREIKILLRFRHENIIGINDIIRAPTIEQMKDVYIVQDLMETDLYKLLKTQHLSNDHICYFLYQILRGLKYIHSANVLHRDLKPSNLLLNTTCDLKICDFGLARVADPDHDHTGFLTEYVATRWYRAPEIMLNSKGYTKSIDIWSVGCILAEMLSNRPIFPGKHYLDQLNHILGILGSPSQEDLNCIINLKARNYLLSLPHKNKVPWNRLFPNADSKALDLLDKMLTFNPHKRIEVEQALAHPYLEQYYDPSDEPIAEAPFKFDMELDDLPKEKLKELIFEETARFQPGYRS

`Nc1ncnc2c1ncn2[C@@H]1O[C@H](COC(=O)N2CCN(CCc3ccccc3)CC2)[C@@H](O)[C@H]1O` [Compound C26]: the inhibition at 10 µM is 2% in assay [1]; 0% in [2]; 3% in assay [3]; 2% in assay [4]; 6% in assay [5]; 8% in assay [6]. Further, the inhibition at 10 µM was 2% in assay [7]; 6% in assay [8]; 11% in assay [9]; -5% in assay [10]; -1% in assay [11]; 8% in [12].
Consider `CN1CCN(CCNC(=O)OC[C@H]2O[C@@H](n3cnc4c(N)ncnc43)[C@H](O)[C@@H]2O)CC1` [Compound C46], for which the inhibition at 10 µM in assay [1] was 10%; in assay [2], 4%; in assay [3] it was 5%; in assay [4] it was 4%; in [5] it was 5%; in [6] it was 7%. Moreover, the inhibition at 10 µM in assay [7] was determined as 7%; in assay [8] it was 6%; in [9], 9%; in assay [10], 8%; in [11], 3%; in [12], 14%.
Consider `Nc1ncnc2c1ncn2[C@@H]1O[C@H](COC(=O)N2CCC(Cc3ccc(F)cc3)C2)[C@@H](O)[C@H]1O` (stereo partly drawn) [Compound C66], for which the inhibition at 10 µM in assay [1] is -2%; in assay [2], -1%; in assay [3] it was -5%; in assay [4], 7%; in [5], 1%; in [6], 1%. Further, the inhibition at 10 µM in assay [7] was -2%; in assay [8], -7%; in assay [9], 9%; in [10], -14%; in assay [11] it was 1%; in [12], 16%.
Consider `N#CCCN1CCN(C(=O)OC[C@H]2O[C@@H](n3cnc4c(N)ncnc43)[C@H](O)[C@@H]2O)CC1` [Compound C70], for which the inhibition at 10 µM in assay [1] was -7%; in [2], 8%; in assay [3] it was 4%; in assay [4] it was 6%; in [5], 0%; in assay [6], 1%. In addition, the inhibition at 10 µM in assay [7] was 0%; in assay [8], 12%; in [9], 16%; in assay [10], -2%; in [11], -4%; in [12] it was 6%.
`CN(C)CCNC(=O)OC[C@H]1O[C@@H](n2cnc3c(N)ncnc32)[C@H](O)[C@@H]1O` [Compound C85]: the inhibition at 10 µM in assay [1] was -2%; in assay [2], 4%; in assay [3], 7%; in [4], 7%; in assay [5] it was -5%; in assay [6] it was 8%. The inhibition at 10 µM in assay [7] was -1%; in assay [8], 10%; in assay [9], 8%; in assay [10], -12%; in assay [11], -2%; in [12], -1%.
Take `Nc1ncnc2c1ncn2[C@@H]1O[C@H](COC(=O)N2CCN(C(=O)N3CCOCC3)CC2)[C@@H](O)[C@H]1O` [Compound C89]: the inhibition at 10 µM in assay [1] is -3%; in [2], 2%; in assay [3], 8%; in assay [4], 3%; in [5], -2%; in assay [6] it was 2%. In addition, the inhibition at 10 µM in assay [7] is -5%; in assay [8], -16%; in [9], 9%; in assay [10], -4%; in [11], -1%; in [12], 0%.
`CS(=O)(=O)N1CC2(CCN(C(=O)OC[C@H]3O[C@@H](n4cnc5c(N)ncnc54)[C@H](O)[C@@H]3O)CC2)c2ccccc21` [Compound C98]: the inhibition at 10 µM in assay [1] is 15%; in assay [2] it was 2%; in assay [3], 2%; in assay [4] it was 5%; in assay [5], -1%; in assay [6] it was 8%. Further, the inhibition at 10 µM is -17% in assay [7]; 20% in assay [8]; 16% in assay [9]; -12% in assay [10]; -2% in assay [11]; 0% in assay [12].
In the case of `Nc1ncnc2c1ncn2[C@@H]1O[C@H](COC(=O)N2CCS(=O)(=O)CC2)[C@@H](O)[C@H]1O` [Compound C100], the inhibition at 10 µM in [1] turned out to be 1%; in assay [2], 8%; in assay [3], 5%; in assay [4], 12%; in assay [5] it was 5%; in assay [6] it was 11%. The inhibition at 10 µM was 0% in [7]; -9% in [8]; 13% in assay [9]; -3% in assay [10]; -3% in assay [11]; 13% in assay [12].
